Assay results published in patent US20140288069A1, “AMINO-SUBSTITUTED IMIDAZOPYRIDAZINES AS MKNK1 KINASE INHIBITORS” (Bayer Intellectual Property GmbH, priority 2011, published 2014).
pIC50: −log10 of the molar value.

How the values were obtained:
[1] = target: T1, human full-lengt MKNK1 (Homo sapiens, UniProt Q9BUB5, T385D); experiment: MKNK1 kinase assay (MKNK1 TR-FRET assay); format: biochemical; conditions: final ATP 10 μM, 15 min pre-incubation, GST-MKNK1 (T344D)
T1 construct: GST (N); purchased Carna Biosciences 02-145; host or cells: insect cells (baculovirus)
T1 sequence (Q9BUB5 1-424 isoform Q9BUB5-2 T344D): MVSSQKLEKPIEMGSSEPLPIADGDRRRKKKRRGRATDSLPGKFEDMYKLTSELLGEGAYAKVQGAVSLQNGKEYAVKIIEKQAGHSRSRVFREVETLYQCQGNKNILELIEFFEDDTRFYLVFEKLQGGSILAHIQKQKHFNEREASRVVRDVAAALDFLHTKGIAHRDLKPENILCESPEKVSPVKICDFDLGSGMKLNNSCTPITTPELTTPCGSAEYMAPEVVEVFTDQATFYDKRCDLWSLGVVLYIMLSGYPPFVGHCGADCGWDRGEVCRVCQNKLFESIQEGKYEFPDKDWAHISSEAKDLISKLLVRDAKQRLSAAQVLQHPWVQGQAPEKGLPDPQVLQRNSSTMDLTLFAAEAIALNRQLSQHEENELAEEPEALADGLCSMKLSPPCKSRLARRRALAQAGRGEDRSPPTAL
Method: MKNK1-inhibitory activity of compounds of the present invention was quantified employing the MKNK1 TR-FRET assay as described in the following paragraphs.
As substrate for the kinase reaction the biotinylated peptide biotin-Ahx-[sequence] (C-terminus in amide form) was used which can be purchased e.g. form the company Biosyntan (Berlin-Buch, Germany).
For the assay 50 mL of a 100 fold concentrated solution of the test compound in DMSO was pipetted into a black low volume 384 well microtiter plate (Greiner Bio-One, Frickenhausen, Germany), 2 μL of a solution of MKNK1 in aqueous assay buffer [50 mM HEPES pH 7.5, 5 mM magnesium chloride, 1.0 mM dithiothreitol, 0.005% (v/v) Nonidet-P40 (Sigma)] was added and the mixture was incubated for 15 min at 22° C. to allow pre-binding of the test compounds to the enzyme before the start of the kinase reaction. […] The concentration of MKNK1 was adjusted depending of the activity of the enzyme lot and was chosen appropriate to have the assay in the linear range, typical concentrations were in the range of 0.05 μg/ml. The reaction was stopped by the addition of 5 μL of a solution of TR-FRET detection reagents (5 nM streptavidine-XL665 [Cisbio Bioassays, Codalet, France] and 1 nM anti-ribosomal protein S6 (pSer236)-antibody from Invitrogen [#44921G] and 1 nM LANCE EU-W1024 labeled ProteinG [Perkin-Elmer, product no. 4D0071]) in an aqueous EDTA-solution (100 mM EDTA, 0.1% (w/v) bovine serum albumin in 50 mM HEPES pH 7.5).
The resulting mixture was incubated for 1 h at 22° C. to allow the formation of complex between the phosphorylated biotinylated peptide and the detection reagents. Subsequently the amount of phosphorylated substrate was evaluated by measurement of the resonance energy transfer from the Eu-chelate to the streptavidine-XL.

[2] = target: T2, human full-length MKNK1 (Homo sapiens, UniProt Q9BUB5, T385D); experiment: MKNK1 kinase high ATP assay (TR-FRET-based); format: biochemical; conditions: final ATP 2 mM, 15 min pre-incubation with MKNK1, GST-MKNK1 (T344D);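 further: biotinylated peptide phosphorylation read out via Eu-chelate to streptavidin-XL665 energy transfer using anti-phospho-S6 (Ser236) antibody, 30 min reaction at 22 °C with 0.06 µM substrate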
T2 construct: GST (N); purchased Carna Biosciences 02-145; host or cells: insect cells (baculovirus)
T2 sequence (Q9BUB5 1-424 isoform Q9BUB5-2 T344D): as above
From the text: A recombinant fusion protein of Glutathione-S-Transferase (GST, N-terminally) and human full-length MKNK1 (amino acids 1-424 and T344D of accession number BAA 19885.1), expressed in insect cells using baculovirus expression system and purified via glutathione sepharose affinity chromatography, was purchased from Carna Biosciences (product no 02-145) and used as enzyme. As substrate for the kinase reaction the biotinylated peptide biotin-Ahx-[sequence] (C-terminus in amide form) was used, which can be purchased e.g. from the company Biosyntan (Berlin-Buch, Germany).
For the assay 50 nl nL of a 100 fold concentrated solution of the test compound in DMSO was pipetted into a black low volume 384 well microtiter plate (Greiner Bio-One, Frickenhausen, Germany), 2 μL of a solution of MKNK1 in aqueous assay buffer [50 mM HEPES pH 7.5, 5 mM magnesium chloride, 1.0 mM dithiothreitol, 0.005% (v/v) Nonidet-P40 (Sigma)] was added and the mixture was incubated for 15 min at 22° C. to allow pre-binding of the test compounds to the enzyme before the start of the kinase reaction. Then the kinase reaction was started by the addition of 3 μL of a solution of adenosine-tri-phosphate (ATP, 3.3 mM=>final conc. in the 5 μL assay volume is 2 mM) and substrate (0.1 μM=>final conc. in the 5 μL assay volume is 0.06 μM) in assay buffer and the resulting mixture was incubated for a reaction time of 30 min at 22° C. The concentration of MKNK1 was adjusted depending of the activity of the enzyme lot and was chosen appropriate to have the assay in the linear range, typical concentrations were in the range of 0.003 μg/mL. The reaction was stopped by the addition of 5 μL of a solution of TR-FRET detection reagents (5 nM streptavidine-XL665 [Cisbio Bioassays, Codolet, France] and 1 nM anti-ribosomal protein S6 (pSer236)-antibody from Invitrogen [#44921G] and 1 nM LANCE EU-W1024 labeled ProteinG [Perkin-Elmer, product no. 4D0071]) in an aqueous EDTA-solution (100 mM EDTA, 0.1% (w/v) bovine serum albumin in 50 mM HEPES pH 7.5).
The resulting mixture was incubated for 1 h at 22° C. to allow the formation of complex between the phosphorylated biotinylated peptide and the detection reagents. Subsequently the amount of phosphorylated substrate was evaluated by measurement of the resonance energy transfer from the Eu-chelate to the streptavidine-XL. Therefore, the fluorescence emissions at 620 nm and 665 nm after excitation at 350 nm were measured in a TR-FRET reader, e.g. a Rubystar (BMG Labtechnologies, Offenburg, Germany) or a Viewlux (Perkin-Elmer). The ratio of the emissions at 665 nm and at 622 nm was taken as the measure for the amount of phosphorylated substrate.

| Structure (SMILES) | pIC50 [1] | pIC50 [2] |
| --- | --- | --- |
| c1ccc(Nc2ccc3ncc(-c4ccncc4)n3n2)cc1 [Example R2, N-Phenyl-3-(pyridin-4-yl)imidazo-[1,2-b]-pyridazin-6-amine, reference compound] | 7.19 | 6.77 |
| OCCNc1ccc2ncc(-c3cc4ccccc4o3)n2n1 [Example 13, 2-{[3-(1-Benzofuran-2-yl)imidazo[1,2-b]pyridazin-6-yl]amino}ethanol] | 8.22 | – |
| c1cc(Nc2ccc3ncc(-c4ccncc4)n3n2)ccn1 [Example R4, N,3-Di(pyridin-4-yl)-imidazo-[1,2-b]-pyridazin-6-amine, reference compound] | 6.61 | 6.09 |
| OC(CNc1ccc2ncc(-c3cc4ccccc4o3)n2n1)C1CCCCC1 (centres unmarked) [Example 37, 2-{[3-(1-Benzofuran-2-yl)imidazo[1,2-b]pyridazin-6-yl]amino}-1-cyclohexylethanol] | – | 7.54 |
| COc1nccc2oc(-c3cnc4ccc(NC[C@@H](O)c5ccccc5)nn34)cc12 [Example 35, (1S)-2-{[3-(4-Methoxyfuro[3,2-c]pyridin-2-yl)imidazo[1,2-b]pyridazin-6-yl]-amino}-1-phenylethanol] | – | 7.60 |
| OC(CNc1ccc2ncc(-c3cc4ccccc4o3)n2n1)CN1CCCC1 (centres unmarked) [Example 40, 1-{[3-(1-Benzofuran-2-yl)imidazo[1,2-b]pyridazin-6-yl]amino}-3-(pyrrolidin-1-yl)propan-2-ol] | – | 7.42 |
| NCC(O)CNc1ccc2ncc(-c3cc4ccccc4o3)n2n1 (centres unmarked) [Example 31, 1-Amino-3-{[3-(1-benzofuran-2-yl)imidazo[1,2-b]pyridazin-6-yl]amino}propan-2-ol] | – | 8.10 |
| O=C1CCCN1CC(O)CNc1ccc2ncc(-c3cc4ccccc4o3)n2n1 (centres unmarked) [Example 36, 1-(3-{[3-(1-Benzofuran-2-yl)imidazo[1,2-b]pyridazin-6-yl]amino}-2-hydroxy-propyl)pyrrolidin-2-one] | – | 7.59 |
| OC(CNc1ccc2ncc(-c3cc4ccccc4o3)n2n1)CN1CCOCC1 (centres unmarked) [Example 38, 1-{[3-(1-Benzofuran-2-yl)imidazo[1,2-b]pyridazin-6-yl]amino}-3-(morpholin-4-yl)propan-2-ol] | – | 7.49 |
| O[C@@H](CNc1ccc2ncc(-c3cc4ccccc4o3)n2n1)c1cccnc1 [Example 20, (1R)-2-{[3-(1-Benzofuran-2-yl)imidazo[1,2-b]pyridazin-6-yl]amino}-1-(pyridin-3-yl)ethanol] | 9.00 | – |
| CN(C)CCNc1ccc2ncc(-c3cc4ccccc4o3)n2n1 [Example R7, N′-[3-(1-Benzofuran-2-yl)imidazo[1,2-b]pyridazin-6-yl]-N,N-dimethylethane-1,2-diamine, reference compound] | 7.96 | 7.89 |
| OC(CNc1ccc2ncc(-c3cc4ccccc4o3)n2n1)C1CC1 (single isomer, unassigned; (+)) [Example 23, (+)-2-{[3-(1-Benzofuran-2-yl)imidazo[1,2-b]pyridazin-6-yl]amino}-1-cyclopropylethanol] | – | 7.57 |
| c1ccc(CNc2ccc3ncc(-c4ccncc4)n3n2)cc1 [Example R1, N-Benzyl-3-(pyridin-4-yl)imidazo[1,2-b]pyridazin-6-amine, reference compound] | 6.74 | 6.43 |
| OC(CCNc1ccc2ncc(-c3cc4ccccc4o3)n2n1)c1ccc(F)cc1 (centres unmarked) [Example 15, 3-{[3-(1-Benzofuran-2-yl)-imidazo-[1,2-b]-pyridazin-6-yl]-amino}-1-(4-fluoro-phenyl)-propan-1-ol] | 7.49 | – |
| CC(C)(C)C(O)CNc1ccc2ncc(-c3cc4ccccc4o3)n2n1 (centres unmarked) [Example 34, 1-{[3-(1-Benzofuran-2-yl)imidazo[1,2-b]pyridazin-6-yl]amino}-3,3-dimethylbutan-2-ol] | – | 7.68 |
| OC(CNc1ccc2ncc(-c3cc4ccccc4o3)n2n1)CN1CCCCC1 (centres unmarked) [Example 39, 1-{[3-(1-Benzofuran-2-yl)imidazo[1,2-b]pyridazin-6-yl]amino}-3-(piperidin-1-yl)propan-2-ol] | – | 7.43 |
| CCC(O)CNc1ccc2ncc(-c3cc4c(OC)nccc4o3)n2n1 (centres unmarked) [Example 30, 1-{[3-(4-Methoxyfuro[3,2-c]pyridin-2-yl)imidazo[1,2-b]pyridazin-6-yl]amino}butan-2-ol] | – | 8.22 |
| COc1nccc2oc(-c3cnc4ccc(NCC(O)C5CCOCC5)nn34)cc12 (centres unmarked) [Example 32, 2-{[3-(4-Methoxyfuro[3,2-c]pyridin-2-yl)imidazo[1,2-b]pyridazin-6-yl]amino}-1-(tetrahydro-2H-pyran-4-yl)ethanol] | – | 7.74 |
| OC[C@@H](O)CNc1ccc2ncc(-c3cc4ccccc4o3)n2n1 [Example 17, (2S)-3-{[3-(1-Benzofuran-2-yl)-imidazo-[1,2-b]-pyridazin-6-yl]amino}-propane-1,2-diol] | 7.89 | – |

| Structure (SMILES) | pIC50 [1] | pIC50 [2] |
| --- | --- | --- |
| CC(O)(CNc1ccc2ncc(-c3cc4ccccc4o3)n2n1)c1ccccc1 (centres unmarked) [Example 21, 1-{[3-(1-Benzofuran-2-yl)imidazo[1,2-b]pyridazin-6-yl]amino}-2-phenylpropan-2-ol] | 7.22 | – |
| CCC(O)CNc1ccc2ncc(-c3cc4ccccc4o3)n2n1 (centres unmarked) [Example 29, 1-{[3-(1-Benzofuran-2-yl)imidazo[1,2-b]pyridazin-6-yl]amino}butan-2-ol] | – | 8.22 |
| c1cc(-c2cnc3ccc(NC4CCOCC4)nn23)ccn1 [Example R5, 3-(Pyridin-4-yl)-N-(tetra-hydro-2H-pyran-4-yl)-imidazo-[1,2-b]-pyridazin-6-amine, reference compound] | 6.72 | 6.32 |
| OC(CNc1ccc2ncc(-c3cc4ccccc4o3)n2n1)c1ccccn1 (centres unmarked) [Example 22, 2-{[3-(1-Benzofuran-2-yl)imidazo[1,2-b]pyridazin-6-yl]amino}-1-(pyridin-2-yl)ethanol] | 8.30 | – |
| OC[C@H](O)CNc1ccc2ncc(-c3cc4ccccc4o3)n2n1 [Example 16, (2R)-3-{[3-(1-Benzofuran-2-yl)imidazo[1,2-b]pyridazin-6-yl]amino}propane-1,2-diol] | 8.40 | – |
| CC(C)C(O)CNc1ccc2ncc(-c3cc4ccccc4o3)n2n1 (centres unmarked) [Example 33, 1-{[3-(1-Benzofuran-2-yl)imidazo[1,2-b]pyridazin-6-yl]amino}-3-methylbutan-2-ol] | – | 7.68 |
| O[C@H](CNc1ccc2ncc(-c3cc4ccccc4o3)n2n1)c1ccccc1 [Example 19, (1S)-2-{[3-(1-Benzofuran-2-yl)imidazo[1,2-b]pyridazin-6-yl]amino}-1-phenylethanol] | 7.66 | – |
| c1ccc2oc(-c3cnc4ccc(NCc5ccncc5)nn34)cc2c1 [Example R8, 3-(1-Benzofuran-2-yl)-N-(pyridin-4-ylmethyl)imidazo[1,2-b]pyridazin-6-amine, reference compound] | 7.64 | 7.47 |
| OC(CNc1ccc2ncc(-c3cc4ccccc4o3)n2n1)C1CCOCC1 (single isomer, unassigned; (+)) [Example 25, (+)-2-{[3-(1-Benzofuran-2-yl)imidazo[1,2-b]pyridazin-6-yl]amino}-1-(tetrahydro-2H-pyran-4-yl)] | – | 8.15 |
| CC[C@@H](CO)Nc1ccc2ncc(-c3cc4ccccc4o3)n2n1 [Example 4, (2S)-2-{[3-(1-Benzofuran-2-yl)-imidazo[1,2-b]-pyridazin-6-yl]-amino}butan-1-ol] | 7.82 | – |
| OC(CNc1ccc2ncc(-c3cc4ccccc4o3)n2n1)c1ccc(F)cc1 (centres unmarked) [Example 41, 2-{[3-(1-Benzofuran-2-yl)imidazo[1,2-b]pyridazin-6-yl]amino}-1-(4-fluoro-phenyl)ethanol] | – | 7.39 |
| OC(CNc1ccc2ncc(-c3cc4ccccc4o3)n2n1)C1CC1 (single isomer, unassigned; (-)) [Example 24, (−)-2-{[3-(1-Benzofuran-2-yl)imidazo[1,2-b]pyridazin-6-yl]amino}-1-cyclopropylethanol] | – | 9.00 |
| c1ccc(CCNc2ccc3ncc(-c4cc5ccccc5o4)n3n2)nc1 [Example R6, 3-(1-Benzofuran-2-yl)-N-[2-(pyridin-2-yl)ethyl]imidazo[1,2-b]pyridazin-6-amine, reference compound] | 7.77 | 6.60 |
| O[C@@H](CNc1ccc2ncc(-c3cc4ccccc4o3)n2n1)c1ccccc1 [Example 18, (1R)-2-{[3-(1-Benzofuran-2-yl)imidazo[1,2-b]pyridazin-6-yl]amino}-1-phenylethanol] | 9.00 | – |
| OCCCNc1ccc2ncc(-c3cc4ccccc4o3)n2n1 [Example 14, 3-{[3-(1-Benzofuran-2-yl)imidazo[1,2-b]pyridazin-6-yl]amino}propan-1-ol] | 8.15 | – |
| COc1nccc2oc(-c3cnc4ccc(NC[C@H](O)c5ccccc5)nn34)cc12 [Example 28, (1R)-2-{[3-(4-Methoxyfuro[3,2-c]pyridin-2-yl)imidazo[1,2-b]pyridazin-6-yl]amino}-1-phenylethanol] | – | 8.30 |
| OC(CNc1ccc2ncc(-c3cc4ccccc4o3)n2n1)C1CCOCC1 (single isomer, unassigned; (-)) [Example 26, (−)-2-{[3-(1-Benzofuran-2-yl)imidazo[1,2-b]pyridazin-6-yl]amino}-1-(tetrahydro-2H-pyran-4-yl)] | – | 8.70 |
| COc1nccc2oc(-c3cnc4ccc(NCC(O)C5CC5)nn34)cc12 (centres unmarked) [Example 27, 1-Cyclopropyl-2-{[3-(4-methoxyfuro[3,2-c]pyridin-2-yl)imidazo[1,2-b]pyridazin-6-yl]amino}ethanol] | – | 8.40 |
